Data taken from US10010493B2, “Ester compound, and cosmetic component and cosmetic product each containing same” (Kokyu Alcohol Kogyo Co., Ltd., priority 2014, dated 2018).
“Also recorded” adds a separate entry of the source. Values belong to the compound of their own block, whether it stands above or below them.

Columns and labels:
Assay type in all cases: physicochemical
[1] = Ultraviolet absorber solubility in oily bases; also: key: C: Soluble; N: Insoluble; (N): Since it is insoluble when ultraviolet absorber is 3%, it is judged to be probably insoluble at 5% as well
Procedure: Their state after 1 week was evaluated visually.

[2] = Smoothness (MIU, MMD), KES-SE Friction Tester on artificial leather; details: for MIU (mean frictional coefficient) / MMD (fluctuation of mean frictional coefficient): 25° C., 0.1 ml on artificial leather, average of three; for Smoothness in comparison with other oil agents: comparison of MIU at similar viscosity
Procedure: Smoothness of ester compounds was measured using KES-SE Friction Tester (Kato Tech Co., Ltd.) with a detection-unit jig (an accessory of the tester, made of silicone rubber with irregularities resembling a human finger) and artificial leather (artificial leather Supplare produced by Idemitsu Technofine Co., Ltd.). On the artificial leather, 0.1 ml of an ester compound was droped. The jig was contacted to the site on the surface of the artificial leather where the oil agent was dropped. Temperature of the leather, oil agent and jig was adjusted to 25° C. in a constant temperature bath. Then, the jig was moved back and forth once at the same site with a speed of 1 mm/s (the moving distance of the jig was approximately 80 mm in one back-and-forth movement), and a mean frictional coefficient (MIU) and a fluctuation of mean frictional coefficient (MMD) for one back-and-forth movement were measured. The measurement was performed three times and the average values of MIU and MMD were calculated, which were used as indices of smoothness. For comparison, MIU and MMD of the various ester compounds used in the viscosity measurement were also measured.

[3] = Compatibility with various types of oil agent; parameters: key to Compatibility with Hydrogenated polyisobutene / Compatibility with Isononyl isononanoate / Compatibility with Neopentyl glycol diethylhexanoate / Compatibility with Triethylhexanoin / Compatibility with Octyldodecanol / Compatibility with Polyglyceryl-2 triisostearate / Compatibility with Diisostearyl malate / Compatibility with Olive oil / Compatibility with Isostearic acid / Compatibility with Cyclomethicone / Compatibility with Dimethicone (10 mm^2/s) / Compatibility with Ethanol / Compatibility with Glycerin / Compatibility with Squalane / Compatibility with Mineral oil: C: Compatible; N: Not compatible; details: for Compatibility with Cyclomethicone / Compatibility with Diisostearyl malate / Compatibility with Dimethicone (10 mm^2/s) / Compatibility with Ethanol / Compatibility with Glycerin / Compatibility with Hydrogenated polyisobutene / Compatibility with Isononyl isononanoate / Compatibility with Mineral oil / Compatibility with Neopentyl glycol diethylhexanoate / Compatibility with Octyldodecanol / Compatibility with Polyglyceryl-2 triisostearate / Compatibility with Squalane / Compatibility with Isostearic acid / Compatibility with Olive oil / Compatibility with Triethylhexanoin: 25° C., visual after 1 week
Procedure: Each of TCDNP and TCDDNP obtained in Synthesis Examples 1 and 8 and each of oily bases are combined with a weight ratio of 9:1 or 1:1, and dissolved in a water bath at 80-90° C. for approximately 30 min with stirring, then cooled to 50° C. with stirring, and stored in a thermostatic chamber at 25° C. Their compatibility was evaluated by visually checking the state after 1 week.

[4] = Glossiness (refractive index), Abbe refractometer NTR-2T; details: 20° C.
Procedure: Measurement is carried out using Abbe refractometer NTR-2T (Atago Co., Ltd.) at 20° C., and resulting values represent refractive index.

[5] = Viscosity, Brookfield viscometer DV-II+; details: 25° C., spindle No. 2, 12 rpm
Procedure: Viscosity of ester compounds was measured using Brookfield viscometer DV-II+ (spindle No. 2, 12 rpm, 25° C.). As a comparison, viscosity of oil agents commonly used in cosmetic products was also measured.

[6] = Tinosorb S 7%, 25° C., visual after 1 week
[7] = Tinosorb S 5%, 25° C., visual after 1 week
[8] = Tinosorb S 2%, 25° C., visual after 1 week
[9] = Tinosorb S 5%, judged from insolubility at 3%

Solubility of ultraviolet absorber Tinosorb S in the component [1, 6]: N
Compound: CCCCCCCCCC(=O)OCC(C)(C)COC(=O)CCCCCCCCC [Neopentyl glycol dicaprate]

MIU (mean frictional coefficient) [2]: 0.25
MMD (fluctuation of mean frictional coefficient) [2]: 0.006
Compatibility with Cyclomethicone ([3]; 10%): C
Compatibility with Diisostearyl malate ([3]; 10%): C
Compatibility with Dimethicone (10 mm^2/s) ([3]; 10%): C
Compatibility with Ethanol ([3]; 10%): C
Compatibility with Glycerin ([3]; 10%): N
Compatibility with Hydrogenated polyisobutene ([3]; 10%): C
Compatibility with Isononyl isononanoate ([3]; 10%): C
Compatibility with Mineral oil ([3]; 10%): C
Compatibility with Neopentyl glycol diethylhexanoate ([3]; 10%): C
Compatibility with Octyldodecanol ([3]; 10%): C
Compatibility with Polyglyceryl-2 triisostearate ([3]; 10%): C
Compatibility with Squalane ([3]; 10%): C
Compatibility with Cyclomethicone ([3]; 50%): C
Compatibility with Diisostearyl malate ([3]; 50%): C
Compatibility with Dimethicone (10 mm^2/s) ([3]; 50%): C
Compatibility with Ethanol ([3]; 50%): C
Compatibility with Glycerin ([3]; 50%): N
Compatibility with Hydrogenated polyisobutene ([3]; 50%): C
Compatibility with Isononyl isononanoate ([3]; 50%): C
Compatibility with Mineral oil ([3]; 50%): C
Compatibility with Neopentyl glycol diethylhexanoate ([3]; 50%): C
Compatibility with Octyldodecanol ([3]; 50%): C
Compatibility with Polyglyceryl-2 triisostearate ([3]; 50%): C
Compatibility with Squalane ([3]; 50%): C
Solubility of ultraviolet absorber Tinosorb S in the component [1, 6]: N
Refractive index [4]: 1.479
Viscosity [5]: 32 mPa · s
Compound: CC(C)(C)C(=O)OCC1CC2CC1C1CCCC21 (centres unmarked) [TCDNP, tricyclo[5.2.1.0^2,6]deca-8-yl-methyl neopentanoate]
Smoothness in comparison with other oil agents [2]: superior smoothness than squalane; also recorded: comparable to dimethicone
Compatibility with the oil agents (overall) [3]: excellent compatibility with the oil agents other than glycerin

Solubility of ultraviolet absorber Tinosorb S in the component [1, 7]: N
Compound: CCCCC(CC)C(=O)OCC(C)(C)COC(=O)C(CC)CCCC (centres unmarked) [Neopentyl glycol diethylhexanoate]

MIU (mean frictional coefficient) [2]: 0.31
MMD (fluctuation of mean frictional coefficient) [2]: 0.006
Smoothness in comparison with other oil agents [2]: superior smoothness than squalane
Solubility of ultraviolet absorber Tinosorb S in the component [1, 7]: N
Refractive index [4]: 1.479
Viscosity [5]: 44 mPa · s
Compound: CC(CC(=O)OCC1CC2CC1C1CCCC21)CC(C)(C)C (centres unmarked) [TCDIN, tricyclo[5.2.1.0^2,6]deca-8-yl-methyl isononanoate]

Solubility of ultraviolet absorber Tinosorb S in the component [1, 7]: N
Compound: Ethylhexyl isononanoate

MIU (mean frictional coefficient) [2]: 0.41
MMD (fluctuation of mean frictional coefficient) [2]: 0.006
Solubility of ultraviolet absorber Tinosorb S in the component [1, 8]: N
Viscosity [5]: 96 mPa · s
Compound: CCCCCCCCCCCCCCCCCC(=O)OC(CCCCCC)CCCCCCCCCCC(=O)OCC(CCCCCCCC)CCCCCCCCCC (centres unmarked) [Octyldodecyl stearoyloxy stearate, reference compound]

Solubility of ultraviolet absorber Tinosorb S in the component [1, 9]: (N)
Refractive index [4]: 1.445
Compound: CC(C)CCCCCCCCCCOC(=O)CCCCCC(C)C [Isotridecyl isononanoate, reference compound]

MIU (mean frictional coefficient) [2]: 0.15
MMD (fluctuation of mean frictional coefficient) [2]: 0.005
Solubility of ultraviolet absorber Tinosorb S in the component [1, 7]: N
Refractive index [4]: 1.430
Viscosity [5]: 4 mPa · s
Compound: CC(C)CCCCCCCOC(=O)C(C)(C)C [Isodecyl neopentanoate, reference compound]

Compound: CCCCCCCCCCC(CO)CCCCCCCCCC [Decyldodecanol, reference compound]
MIU (mean frictional coefficient) [2]: 0.40
MMD (fluctuation of mean frictional coefficient) [2]: 0.006
Viscosity [5]: 69 mPa · s

Solubility of ultraviolet absorber Tinosorb S in the component [1, 9]: (N)
Compound: Ethylhexyl hydroxystearate

Refractive index [4]: 1.468
Compound: Pentaerythrityl tetraisostearate [reference compound]

MIU (mean frictional coefficient) [2]: 0.28
MMD (fluctuation of mean frictional coefficient) [2]: 0.006
Compatibility with Cyclomethicone ([3]; 10%): C
Compatibility with Dimethicone (10 mm^2/s) ([3]; 10%): C
Compatibility with Ethanol ([3]; 10%): C
Compatibility with Glycerin ([3]; 10%): N
Compatibility with Hydrogenated polyisobutene ([3]; 10%): C
Compatibility with Isostearic acid ([3]; 10%): C
Compatibility with Mineral oil ([3]; 10%): C
Compatibility with Octyldodecanol ([3]; 10%): C
Compatibility with Olive oil ([3]; 10%): C
Compatibility with Polyglyceryl-2 triisostearate ([3]; 10%): C
Compatibility with Squalane ([3]; 10%): C
Compatibility with Triethylhexanoin ([3]; 10%): C
Compatibility with Cyclomethicone ([3]; 50%): C
Compatibility with Dimethicone (10 mm^2/s) ([3]; 50%): C
Compatibility with Ethanol ([3]; 50%): C
Compatibility with Glycerin ([3]; 50%): N
Compatibility with Hydrogenated polyisobutene ([3]; 50%): C
Compatibility with Isostearic acid ([3]; 50%): C
Compatibility with Mineral oil ([3]; 50%): C
Compatibility with Octyldodecanol ([3]; 50%): C
Compatibility with Olive oil ([3]; 50%): C
Compatibility with Polyglyceryl-2 triisostearate ([3]; 50%): C
Compatibility with Squalane ([3]; 50%): C
Compatibility with Triethylhexanoin ([3]; 50%): C
Refractive index [4]: 1.472
Viscosity [5]: 462 mPa · s
Compound: CC(C)(C)C(=O)OCC1CC2CC1C1CCC(COC(=O)C(C)(C)C)C21 (centres unmarked) [TCDDNP, 3,8-bis-(neopentanoyloxymethyl)-tricyclo[5.2.1.0^2,6]decane]
Compatibility with the oil agents (overall) [3]: excellent compatibility with the oil agents other than glycerin

Solubility of ultraviolet absorber Tinosorb S in the component [1, 7]: N
Compound: CCOC(=O)CCCCCCCCCCCCCCC(C)C [Ethyl isostearate]

Solubility of ultraviolet absorber Tinosorb S in the component [1, 7]: N
Compound: CC(C)CCCCCCOC(=O)CCCCCC(C)C [Isononyl isononanoate]

MIU (mean frictional coefficient) [2]: 0.27
MMD (fluctuation of mean frictional coefficient) [2]: 0.006
Solubility of ultraviolet absorber Tinosorb S in the component [1, 7]: N
Refractive index [4]: 1.446
Viscosity [5]: 14 mPa · s
Compound: CC(C)CCCCCCCCCCCCCCCOC(=O)C(C)(C)C [Isostearyl neopentanoate, reference compound]

MIU (mean frictional coefficient) [2]: 0.40
MMD (fluctuation of mean frictional coefficient) [2]: 0.006
Refractive index [4]: 1.482
Viscosity [5]: 85 mPa · s
Compound: tricyclo[5.2.1.0^2,6]deca-8-yl-methyl isostearate [TCDIS]

MIU (mean frictional coefficient) [2]: 0.40
MMD (fluctuation of mean frictional coefficient) [2]: 0.007
Viscosity [5]: 32 mPa · s
Compound: CC(C)CCCC(C)CCCC(C)CCCCC(C)CCCC(C)CCCC(C)C (centres unmarked) [Squalane, reference compound]

Compound: CCCCCCCCCCC(CO)CCCCCCCC (centres unmarked) [Octyldodecanol, reference compound]
MIU (mean frictional coefficient) [2]: 0.39
MMD (fluctuation of mean frictional coefficient) [2]: 0.007
Viscosity [5]: 49 mPa · s

Solubility of ultraviolet absorber Tinosorb S in the component [1, 6]: N
Compound: CC(C)COC(=O)CCCCC(=O)OCC(C)C [Diisobutyl adipate]

MIU (mean frictional coefficient) [2]: 0.27
MMD (fluctuation of mean frictional coefficient) [2]: 0.005
Refractive index [4]: 1.483
Viscosity [5]: 15 mPa · s
Compound: CC(C)C(=O)OCC1CC2CC1C1CCCC21 (centres unmarked) [TCDIB, tricyclo[5.2.1.0^2,6]deca-8-yl-methyl isobutanoate]

MIU (mean frictional coefficient) [2]: 0.31
MMD (fluctuation of mean frictional coefficient) [2]: 0.008
Viscosity [5]: 339 mPa · s
Compound: Polyglyceryl-2 triisostearate [reference compound]

MIU (mean frictional coefficient) [2]: 0.29
MMD (fluctuation of mean frictional coefficient) [2]: 0.005
Refractive index [4]: 1.484
Viscosity [5]: 15 mPa · s
Compound: CCCCC(=O)OCC1CC2CC1C1CCCC21 (centres unmarked) [TCDP, tricyclo[5.2.1.0^2,6]deca-8-yl-methyl-n-pentanoate]

Solubility of ultraviolet absorber Tinosorb S in the component [1, 8]: N
Compound: Isopropyl dimerate

Compound: CC(C)CCCCCC(=O)OCC(C)(C)COC(=O)CCCCCC(C)C [Neopentyl glycol diisononanoate]
Solubility of ultraviolet absorber Tinosorb S in the component [1, 9]: (N)
